Assays:
U937 cells [1] = assay: Uptake of FITC-labeled transferrin (validation of dynasor); assay type: cell-based, human; details: dynasor 80 μM, 30 min pre-incubation
Protocol: (§1) Uptake mechanisms analysis. For determining the uptake mechanism(s), we first perform NP uptake assays in the presence of endocytosis inhibitors. U937 cells were cultured on 24 well plates (1×10^5 cells/well) and inhibited by one of the following chemicals during 30 min before adding a suspension of TRITC-labelled NPs (5 μg/mL): dynasor (80 μM), cytochalasin D (10 μM), nocodazole (50 uM), filipin III (100 μM) and polyinosinic acid (100 μg/mL). The inhibitor concentrations were based in values reported in literature and further validated by us to have no cytotoxic effect over the period of the assay (6 h), as confirmed by ATP assay. The incubation of the cells with NPs for different times was performed in the presence of the inhibitor. As controls, we used cells without NPs and cells incubated with NPs without inhibitor. At the end of each time point, cells were centrifuged at 1300 rpm, 2° C. for 5 min with PBS, washed one time with cold trypan blue solution (200 μL; 600 μg/mL), re-washed 3 times with cold PBS and then resuspended in PBS containing 2.5% FBS (500 μL) for FACS analysis. A total of 10,000 events were obtained per measurement. To validate the inhibitory activity of dynasor we performed uptake studies of FITC-labeled transferrin, known to selectively enter cells via clatherin-mediated endocytosis. […] Cells were then evaluated as before.

U937 cells [2] = assay: NP uptake in the presence of endocytosis inhibitors (FACS); assay type: cell-based, human; details: dynasor 80 μM; TRITC-labelled NPs 5 μg/mL
Protocol: as §1

patients = details: cited from earlier work
K562, NB4 and U937 cells = assay: Retinoic acid uptake assay ([3H]RA, scintillation counting); assay type: cell-based, human
Protocol: Experiments were initiated by the addition of medium containing [^3H]RA (1 μM and 10 μM) and [^3H]RA-NPs (1 μg/mL and 10 μg/mL) to cultures (60,000 cells/condition, 24-well plate, 1 mL) of K562, NB4 and U937 cells. After experimental incubations with medium containing [^3H]RA and [^3H]RA-NPs for 4, 24 and 72 hours, cells were collected to eppendorfs, washed with PBS by centrifugation (1500 rpm, 5 min, 2 times) to remove non-internalized [^3H]RA and then resuspend in 100 μL of lysis buffer (see above) and kept on ice until scintillation counting procedure.
The titrium content of the samples was assayed by adding 100 μL aliquot of the samples to 1 mL liquid scintillation fluid (Packard Ultima Gold) and counted in a TriCarb 2900 TR Scintillation analyzer (Perkin Elmer). All conditions were performed in triplicate.

## O=C(N/N=C/c1ccc(O)c(O)c1)c1cc2ccccc2cc1O [Dynasore]
U937 cells [1]
  internalisation of FITC-labeled transferrin: inhibits the internalisation of transferrin
U937 cells [2]
  reduction of the uptake of NPs compared to control cells: 90%

## CC1=C(/C=C/C(C)=C/C=C/C(C)=C/C(=O)O)C(C)(C)CCC1 [RA, retinoic acid]
patients; human, in vivo
  patients receiving RA who develop serious complications including the differentiation syndrome: approximately 25%
patients; up to
  patients in whom the dose of RA leads to hyperleukocytosis and respiratory distress syndrome: 20-30%
K562, NB4 and U937 cells
  time of peak RA uptake: 24 h

## CC1=C(/C=C/C(C)=C/C=C/C(C)=C/C(=O)O)C(C)(C)CCC1 [[^3H]RA]
K562, NB4 and U937 cells; [^3H]RA 1 and 10 uM or [^3H]RA-NPs 1 and 10 ug/mL, for 4 hours, measured after 24 and 72 hours
  uptake yield of [^3H]RA: below 2%

Source: patent US9795675B2, “Light-activatable polymeric nanoparticles” (CNC—CENTRO DE NEUROCIÊNCIAS E BIOLOGIA CELULAR, priority 2013, dated 2017)
